Measurements published in ChEMBL document CHEMBL5614390, “Novel EGFR inhibitors against resistant L858R/T790M/C797S mutant for intervention of non-small cell lung cancer” (Eur J Med Chem, 2024).
Activity calls are given as the source filed them. No cut-off for these calls is given here.

Tests used:
PC-9 [1] = test: Induction of cell cycle arrest in human PC-9 cells expressing EGFR L858R/T790M/C797S mutant assessed as accumulation of cells at G0/G1 phase at low dose incubated for 24 hrs by PI staining based flow cytometric analysis; assay type: functional
[2] = Metabolic stability in Sprague-Dawley rat liver microsomes assessed as half-life at 10 uM preincubated for 5 mins followed by NADPH addition and measured upto 60 mins by HPLC analysis; assay type: ADME, Microsome; details: time < 65 min
PC-9 [3] = test: Induction of apoptosis in human PC-9 cells expressing EGFR Del19/T790M/C797S mutant assessed as necrotic cells at 0.5 uM incubated for 48 hrs by Annexin V-FITC/PI staining based flow cytometric analysis (reference value: 0.090 %); assay type: functional
PC-9 [4] = test: Induction of apoptosis in human PC-9 cells expressing EGFR L858R/T790M/C797S mutant assessed as late apoptotic cells at 0.5 uM incubated for 48 hrs by Annexin V-FITC/PI staining based flow cytometric analysis (reference value: 0.360 %); assay type: functional
PC-9 [5] = test: Induction of cell cycle arrest in human PC-9 cells expressing EGFR Del19/T790M/C797S mutant assessed as accumulation of cells at G2/M phase at 1 uM incubated for 24 hrs by PI staining based flow cytometric analysis; assay type: functional
PC-9 [6] = test: Induction of cell cycle arrest in human PC-9 cells expressing EGFR L858R/T790M/C797S mutant assessed as accumulation of cells at G2/M phase at 1 uM incubated for 24 hrs by PI staining based flow cytometric analysis; assay type: functional
PC-9 [7] = test: Antitumor activity against human PC-9 cells expressing EGFR L858R/T790M/C797S mutant xenografted in BALB/c nude mouse assessed as average tumor weight at 40 mg/kg, po administered for 18 days (reference value: 0.83 g); assay type: functional; details: time 18 day
PC-9 [8] = test: Induction of apoptosis in human PC-9 cells expressing EGFR L858R/T790M/C797S mutant assessed as early apoptotic cells at 1 uM incubated for 48 hrs by Annexin V-FITC/PI staining based flow cytometric analysis (reference value: 0.210 %); assay type: functional
PC-9 [9] = test: Induction of cell cycle arrest in human PC-9 cells expressing EGFR L858R/T790M/C797S mutant assessed as S phase cells at 0.1 to 1 uM incubated for 24 hrs by PI staining based flow cytometric analysis (reference value: 34.5 +/- 3.3 %); assay type: functional; details: dose 0.1-1 µM
[10] = Metabolic stability in dog liver microsomes assessed as intrinsic clearance at 10 uM preincubated for 5 mins followed by NADPH addition and measured upto 60 mins by HPLC analysis; assay type: ADME, Canis lupus familiaris, Microsome; details: time < 65 min, read-out: CLH
PC-9 [11] = test: Induction of apoptosis in human PC-9 cells expressing EGFR L858R/T790M/C797S mutant assessed as early apoptotic cells at 0.1 uM incubated for 48 hrs by Annexin V-FITC/PI staining based flow cytometric analysis (reference value: 0.210 %); assay type: functional
NCI-H1975 = test: cells; details: Homo sapiens, NCI-H1975, 72 h
Description: Cytotoxicity against human NCI-H1975 cells expressing EGFR L858R/T790M mutant assessed as inhibition of cell proliferation incubated for 72 hrs by CCK8 assay

PC-9 [12] = test: Induction of apoptosis in human PC-9 cells expressing EGFR Del19/T790M/C797S mutant assessed as necrotic cells at 0.1 uM incubated for 48 hrs by Annexin V-FITC/PI staining based flow cytometric analysis (reference value: 0.090 %); assay type: functional
HCC827 = test: cells; details: Homo sapiens, HCC827, 72 h
Description: Cytotoxicity against human HCC827 cells expressing EGFR Del19 mutant assessed as inhibition of cell proliferation incubated for 72 hrs by CCK8 assay

[13] = Metabolic stability in rabbit liver microsomes assessed as half-life at 10 uM preincubated for 5 mins followed by NADPH addition and measured upto 60 mins by HPLC analysis; assay type: ADME, Oryctolagus cuniculus, Microsome; details: time < 65 min
PC-9 [14] = test: Induction of apoptosis in human PC-9 cells expressing EGFR Del19/T790M/C797S mutant assessed as viable cells at 0.1 uM incubated for 48 hrs by Annexin V-FITC/PI staining based flow cytometric analysis (reference value: 99.8 %); assay type: functional; details: read-out: Activity
[15] = Toxicity in BALB/c nude mouse xenografted with human PC-9 cells expressing EGFR L858R/T790M/C797S mutant assessed as body weight loss at 10 to 40 mg/kg, po administered for 18 days; assay type: organism-based; details: in vivo, 432 h, dose 10-40 mg/kg, time 18 day
PC-9 [16] = test: Induction of apoptosis in human PC-9 cells expressing EGFR L858R/T790M/C797S mutant assessed as late apoptotic cells at 1 uM incubated for 48 hrs by Annexin V-FITC/PI staining based flow cytometric analysis (reference value: 0.360 %); assay type: functional
[17] = Metabolic stability in Sprague-Dawley rat liver microsomes assessed as intrinsic clearance at 10 uM preincubated for 5 mins followed by NADPH addition and measured upto 60 mins by HPLC analysis; assay type: ADME, Microsome; details: time < 65 min, read-out: CLH
[18] = Metabolic stability in mouse liver microsomes assessed as half-life at 10 uM preincubated for 5 mins followed by NADPH addition and measured upto 60 mins by HPLC analysis; assay type: ADME, Microsome; details: time < 65 min
[19] = Metabolic stability in human liver microsomes assessed as intrinsic clearance at 10 uM preincubated for 5 mins followed by NADPH addition and measured upto 60 mins by HPLC analysis; assay type: ADME, Microsome; details: time < 65 min, read-out: CLH
PC-9 [20] = test: Induction of apoptosis in human PC-9 cells expressing EGFR L858R/T790M/C797S mutant assessed as viable cells at 0.1 uM incubated for 48 hrs by Annexin V-FITC/PI staining based flow cytometric analysis (reference value: 98.9 %); assay type: functional; details: read-out: Activity
PC-9 [21] = test: Induction of apoptosis in human PC-9 cells expressing EGFR L858R/T790M/C797S mutant assessed as necrotic cells at 0.1 uM incubated for 48 hrs by Annexin V-FITC/PI staining based flow cytometric analysis (reference value: 0.540 %); assay type: functional
PC-9 [22] = test: Induction of apoptosis in human PC-9 cells expressing EGFR Del19/T790M/C797S mutant assessed as early apoptotic cells at 0.1 uM incubated for 48 hrs by Annexin V-FITC/PI staining based flow cytometric analysis (reference value: 0.050 %); assay type: functional
PC-9 [23] = test: Induction of apoptosis in human PC-9 cells expressing EGFR Del19/T790M/C797S mutant assessed as viable cells at 1 uM incubated for 48 hrs by Annexin V-FITC/PI staining based flow cytometric analysis (reference value: 99.8 %); assay type: functional; details: Homo sapiens, PC-9, read-out: Activity

## C=CC(=O)Nc1cc(Nc2ncc(F)c(-c3ccc4cc(C(=O)NC)n(C(C)C)c4c3)n2)ccc1N1CCN(C)CC1
PC-9 [1]
  Activity: Active
[2]
  half-life at 10 µM: 1.48 h
PC-9 [3]
  Activity: 1.2%
PC-9 [4]
  Activity: 6.77%
PC-9 [5]
  Activity: Active
PC-9 [6]
  Activity: Active
PC-9 [7]
  Activity: 0.31 g
PC-9 [8]
  Activity: 36.3%
PC-9 [9]
  Activity: 15.9%
[10]
  microsomal CLint at 10 µM: 18 µL/min/mg
PC-9 [11]
  Activity: 2.03%
NCI-H1975
  IC50: 106 nM
PC-9 [12]
  Activity: 3.55%
HCC827
  IC50: 108 nM
[13]
  half-life at 10 µM: 2.36 h
PC-9 [14]
  viability at 0.1 µM: 85.8%
[15]
  Activity: Non-Toxic
PC-9 [16]
  Activity: 4.02%
[17]
  microsomal CLint at 10 µM: 52 µL/min/mg
[18]
  half-life at 10 µM: 1.38 h
[19]
  microsomal CLint at 10 µM: 20 µL/min/mg
PC-9 [20]
  viability at 0.1 µM: 84.9%
PC-9 [21]
  Activity: 5.84%
PC-9 [22]
  Activity: 3.32%
PC-9 [23]
  viability at 1 µM: 79.1%
